Data on 14 compounds can be found in PubChem BioAssay (NCI).

Experiment in all cases: NCI-60 cell line screen, 48 h
Assay [1] deals with SF-268 CNS.
The subject of assay [2] is SNB-19 CNS.
Assay [3] has as its system K-562 leukemia.
In assay [4] the test system is 786-0 renal.
In assay [5] the test system is OVCAR-5 ovarian.
Assay [6] concerns RXF 393 renal.
Assay [7] concerns HOP-92 NSCLC.
For assay [8], the system named is ACHN renal.
Assay [9] has as its system NCI-H23 lung.
For assay [10], the system named is SK-MEL-28 melanoma.

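Five concentrations, 48 hours, 96-well plates. TGI marks complete inhibition of growth.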

As to `O=C(Nc1ccccc1)O/N=C(/CBr)c1ccccc1`, the TGI in assay [1] is 47.7 µM; in [2], 53.9 µM; in assay [3], over 100 µM; in assay [4] it was 26.6 µM; in assay [5], 36.1 µM; in assay [6] it was 48 µM. In addition, the TGI in [7] is 33.2 µM; in assay [8], 33.2 µM; in [9], 26.2 µM; in [10], 43.2 µM.

On to `COC(=O)c1cc(C)ccc1CC(Cc1cccc(C)c1)C(=O)OC` (stereo not drawn), for which the TGI is 53.9 µM in [1]; over 100 µM in [2]; over 100 µM in assay [3]; over 100 µM in assay [4]; over 100 µM in [5]; 73.6 µM in [6]. Further, the TGI in assay [7], in assay [8], in assay [9] and in assay [10] was over 100 µM in each case.

As to `CC(=O)c1ccc(N=Nc2ccc3nonc3c2N)cc1`, the TGI in assay [1], in [2], in assay [3], in [4], in assay [5] and in assay [6] was over 100 µM throughout. Moreover, the TGI in assay [7], in [8], in assay [9] and in assay [10] was over 100 µM in each case.

For the compound `COc1cc2c(cc1C[N+](C)(C)CSc1ccccc1)-c1ccccc1CC2`, the TGI in assay [1] was 18.5 µM; in assay [2], 10.7 µM; in assay [3], 6.75 µM; in assay [4], 19.6 µM; in [5], 24.3 µM; in assay [6], 23.1 µM. Besides, the TGI was 26.2 µM in assay [7], 28.6 µM in [8], 14.4 µM in assay [9] and over 35.1 µM in [10].

For `CN(C)c1ccc(/C=N/Nc2nc3ccccc3c(=O)n2-c2ccccc2)cc1`, the TGI in [1] was over 100 µM; in assay [2], over 100 µM; in [3], over 100 µM; in [4], 83.3 µM; in [5], over 100 µM; in [6], over 100 µM. Besides, the TGI is 85.9 µM in [7], over 100 µM in [8], over 100 µM in [9] and over 100 µM in assay [10].

With `Cn1ccnc1S/C(=C\C=C(C#N)C#N)c1ccc(Cl)cc1`, the TGI was determined as 14.4 µM in [1]; 10.8 µM in assay [2]; 3.41 µM in assay [3]; 5.21 µM in assay [4]; 7.81 µM in assay [5]; 5.4 µM in assay [6]. Besides, the TGI in assay [7] came to 4.18 µM; in assay [8] it was 2.09 µM; in assay [9] it was 5.31 µM.

Consider `N=C(N)SCCON1C(=O)c2ccccc2C1=O`, for which the TGI in assay [1], in [2], in [3], in assay [4], in assay [5] and in assay [6] was over 100 µM each time. In addition, the TGI in assay [7], in assay [8], in assay [9] and in [10] was over 100 µM in each case.

With `CC(=O)NCCCCNCCCNC(C)=O`, the TGI in assay [1], in [2], in assay [3], in [4], in assay [5] and in assay [6] was over 100 µM throughout. Moreover, the TGI in assay [7], in assay [8], in [9] and in assay [10] was over 100 µM each time.

As for `CSc1nc(NC2CCCC2)c2cc[nH]c2n1`, the TGI in assay [1], in assay [2], in assay [3], in [4], in assay [6] and in [7] was over 100 µM throughout. The TGI in assay [8], in [9] and in [10] was over 100 µM each time.

Consider `CCOC(C[Se]CC(OCC)OCC)OCC`, for which the TGI in assay [2] is over 100 µM; in [3] it was over 100 µM; in [4], over 100 µM; in assay [5], over 100 µM; in assay [6] it was 85.8 µM; in [7], over 100 µM. For the same compound, the TGI in assay [8], in assay [9] and in [10] was over 100 µM in each case.

As to `CC(=O)OC(Cc1cc(C=C(C(F)(F)F)C(F)(F)F)cc(C)n1)(C(F)(F)F)C(F)(F)F`, the TGI in assay [1] worked out at 5.81 µM; in [2] it was 4.38 µM; in assay [3], 4.28 µM; in assay [5], 4.58 µM; in assay [6], 2.4 µM; in assay [7], 2.32 µM. The TGI in [8] was 2.84 µM; in assay [9], 3.32 µM; in [10] it was 2.85 µM.

With `Brc1ccc(N=NN2CCCCC2)cc1`, the TGI in assay [1], in assay [2], in assay [3], in assay [4], in assay [5] and in assay [6] was over 100 µM in each case. Also, the TGI in [7], in assay [8] and in assay [9] was over 100 µM each time.

Turning to `Cc1cc2c(cc1Cl)Sc1nnc(Nc3ccccc3)n1S2(=O)=O`, the TGI in assay [1] is 11 µM; in assay [3] it was over 100 µM; in assay [4], 19.1 µM; in assay [5], over 100 µM; in assay [6], 24.2 µM; in assay [7], 28.8 µM. The TGI is 30.3 µM in assay [8], 15.9 µM in assay [9] and 70.9 µM in [10].

On to `CCCC/C=C1\CCC(CN2CCCCC2)C1=O` (stereo not drawn), for which the TGI was 51.6 µM in assay [1]; 49.4 µM in assay [2]; 22.8 µM in assay [3]; 49.9 µM in assay [5]; 18.1 µM in assay [6]; 21 µM in assay [7]. The TGI in assay [8] is 44.3 µM; in assay [9], 45.1 µM; in [10], 36.7 µM.
